The record followed here is ChEMBL document CHEMBL4680115, “Discovery of the programmed cell death-1/programmed cell death-ligand 1 interaction inhibitors bearing an indoline scaffold” (Eur J Med Chem, 2020).

In data set [1] the target is T1, Programmed cell death protein 1/Programmed cell death 1 ligand 1 (Homo sapiens, UniProt Q15116+Q9NZQ7). The data set is described as follows: Inhibition of PD-1/PDL1 interaction (unknown origin) by HTRF assay. The class given is protein-complex assay. For orientation: Time-resolved FRET reads energy transfer from a long-lived donor to a nearby acceptor.
T1 sequence (Q15116 whole entry): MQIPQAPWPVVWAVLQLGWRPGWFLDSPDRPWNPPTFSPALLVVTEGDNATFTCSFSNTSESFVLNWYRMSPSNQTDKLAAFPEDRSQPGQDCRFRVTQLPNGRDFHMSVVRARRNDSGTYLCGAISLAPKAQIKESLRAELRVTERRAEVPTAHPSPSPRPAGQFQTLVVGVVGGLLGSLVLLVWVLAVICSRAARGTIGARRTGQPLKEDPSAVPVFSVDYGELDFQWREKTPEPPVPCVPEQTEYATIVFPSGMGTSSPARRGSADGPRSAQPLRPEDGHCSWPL
T1 sequence (Q9NZQ7 whole entry): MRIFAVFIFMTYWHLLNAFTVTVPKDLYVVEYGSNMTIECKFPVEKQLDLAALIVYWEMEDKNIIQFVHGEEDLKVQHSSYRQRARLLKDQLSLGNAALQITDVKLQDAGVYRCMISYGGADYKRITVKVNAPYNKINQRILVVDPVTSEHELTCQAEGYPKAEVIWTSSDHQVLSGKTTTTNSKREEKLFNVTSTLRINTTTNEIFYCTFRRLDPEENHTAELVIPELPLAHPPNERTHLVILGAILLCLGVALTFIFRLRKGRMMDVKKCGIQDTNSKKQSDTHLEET
For data set [2], the target named is T1, Programmed cell death protein 1/Programmed cell death 1 ligand 1. Kind of data set: Inhibition of PD1/PDL1 protein-protein interaction in human PBMC-derived CD3-positive T cells co-cultured with human Hep3B cells expressing human PDL1/OS-8 assessed as increase in IFNgamma secretion measured after 72 hrs. To be noted: dose 0.31-20 µM.
Data set [3] concerns Jurkat. Kind of data set: Cytotoxicity against human Jurkat T cells assessed as reduction in cell viability measured after 72 hrs by CCK-8 assay. To be noted: for EC50: Homo sapiens, Jurkat; for Activity: human, jurkat, time 72 hrs. The class given is cell-based. In general terms: Formazan colour is commonly taken as a measure of viable cells.
Data set [4] deals with T1, Programmed cell death protein 1/Programmed cell death 1 ligand 1. The data set is described as follows: Inhibition of PD1/PDL1 protein-protein interaction in human PBMC-derived CD3-positive T cells co-cultured with human Hep3B cells expressing human PDL1/OS-8 assessed as increase in IFNgamma secretion at 5 uM measured after 72 hrs relative to BMS-1.
For data set [5] the target is unchanged. Kind of data set: Inhibition of PD1/PDL1 protein-protein interaction in human PBMC-derived CD3-positive T cells co-cultured with human Hep3B cells expressing human PDL1/OS-8 assessed as increase in IFNgamma secretion at 20 uM measured after 72 hrs. Set-up: scale not given: the % may be the effect or the level left.

One may read the IC50 as the midpoint of a concentration-inhibition curve. Turning to `COc1cc(C(=O)N2CCc3c(-c4ccccc4)cccc32)ccc1CN1CCC[C@H]1C(=O)O`, it took 1890 nM to reach half-maximal inhibition in data set [1] (IC50).
On the same count and under the same terms, next, `CC(=O)NCCNCc1cccc(C(=O)N2CCc3c(-c4ccccc4)cccc32)c1`: 745 nM.
For orientation: EC50 means the midpoint of the concentration-response curve. Take `COc1cc(C(=O)N2CCc3c(-c4ccccc4)cccc32)ccc1CNCCNC(C)=O`: the inhibition result in data set [2] is “Dose-dependent effect”. Moreover, the EC50 in data set [3] worked out at 39800 nM. This molecule showed an IC50 in data set [1] of 220 nM.
As to `Cc1c(-c2ccccc2)cccc1N1Cc2ccc(CNCCO)cc2C1=O`, the midpoint of inhibition in data set [1], the IC50, lay at 9380 nM.
Take `Cc1cc(C(=O)N2CCc3c(-c4ccccc4)cccc32)ccc1CNCCO`: the Activity entry in data set [3] is given as “Toxic”. For the same molecule, in data set [1], half-maximal inhibition (IC50) was put at 212 nM.
Take `CC(=O)NCCNCc1ccc(C(=O)N2CCc3c(-c4ccccc4)cccc32)cc1C`: the half-inhibitory concentration (IC50) in data set [1] amounted to 457 nM.
The same measure, in the same setting: next, `COc1cc(C(=O)N2CCc3c(-c4ccccc4)cccc32)cc(OC)c1CNCCNC(C)=O`: 7260 nM; `CC(=O)NCCNCc1ccc(C(=O)N2CCc3c(-c4ccccc4)cccc32)cc1OCc1cccc(C#N)c1`: 1060 nM; `CC(=O)NCCNCc1ccc2c(c1)CN(c1cccc(-c3ccccc3)c1C)C2=O`: > 10000 nM.
Still for that read-out and setting: next, `N#Cc1cccc(COc2cc(C(=O)N3CCc4c(-c5ccccc5)cccc43)ccc2CNCCO)c1`: 572 nM; `COc1cc(C(=O)N2CCc3c(-c4ccc5c(c4)OCCO5)cccc32)ccc1CNCCNC(C)=O`: 416 nM.
In the case of `COc1cc(C(=O)N2CCc3c(-c4ccc5c(c4)OCCO5)cccc32)ccc1CNCCO`, the Activity result in data set [3] was “Toxic”. Also, in data set [1], the concentration for half-maximal inhibition (IC50) amounted to 225 nM.
With `O=C(c1cccc(CNCCO)c1)N1CCc2c(-c3ccccc3)cccc21`, the half-inhibitory concentration (IC50) in data set [1] was 344 nM.
The same measure, in the same setting: next, `CC(=O)NCCNCc1ccc(C(=O)N2CCc3c(-c4ccccc4)cccc32)cc1`: 622 nM; `CC(=O)NCCNCc1ccc(C(=O)N2CCc3c(-c4ccccc4)cccc32)cc1O`: 602 nM.
Regarding `COc1cc(C(=O)N2CCc3c(-c4ccccc4)cccc32)ccc1CNCCO`, the fold change (FC) in data set [4] was found to be 3.21. Also, the inhibition result in data set [2] was “Dose-dependent effect”. Further, the Activity in data set [5] came to 610%. The EC50 in data set [3] amounted to 44700 nM.
`O=C(c1ccc(CNCCO)c(O)c1)N1CCc2c(-c3ccccc3)cccc21`: half-maximal inhibition in data set [1] (IC50) was put at 304 nM.
On the same count and under the same terms, next, `CC(=O)NCCNCc1ccc(C(=O)N2CCc3c(-c4ccccc4)cccc32)c(Cl)c1`: > 10000 nM; `Cc1c(-c2ccccc2)cccc1N1Cc2cc(CNCCO)ccc2C1=O`: 7290 nM; `N#Cc1cccc(COc2cc(C(=O)N3CCc4c(-c5ccccc5)cccc43)ccc2CN2CCCC[C@H]2C(=O)O)c1`: 1330 nM.
Still for that read-out and setting: next, `O=C(c1ccc(CNCCO)c(Cl)c1)N1CCc2c(-c3ccccc3)cccc21`: 353 nM; `COc1cc(C(=O)N2CCc3c(-c4ccccc4)cccc32)ccc1CN1CCC[C@H]1CO`: 620 nM; `COc1cc(C(=O)N2CCc3c(-c4ccccc4)cccc32)ccc1CN1CCCC[C@@H]1C(=O)O`: 1060 nM.
The same measure, in the same setting: with `O=C(c1ccc(CNCCO)cc1Cl)N1CCc2c(-c3ccccc3)cccc21` the figure was > 10000 nM.
On to `N#Cc1cccc(COc2cc(C(=O)N3CCc4c(-c5ccccc5)cccc43)ccc2CN[C@H](CO)C(=O)O)c1`, for which 3280 nM corresponded to half-maximal inhibition in data set [1] (IC50).
`COc1cc(C(=O)N2CCc3c(-c4ccccc4)cccc32)ccc1CN[C@H](CO)C(=O)O` registered an IC50 in data set [1] of 278 nM.
Same read-out and setting: next, `COc1cc(C(=O)N2CCc3c(-c4ccccc4)cccc32)cc(OC)c1CNCCO`: 4770 nM.
For `O=C(c1ccc(CNCCO)cc1)N1CCc2c(-c3ccccc3)cccc21`, the Activity entry in data set [3] is reported as “Toxic”. For the same molecule, inhibition in data set [1] was half-maximal at 192 nM (IC50).
`COCCNCc1ccc(C(=O)N2CCc3c(-c4ccccc4)cccc32)cc1OC`: in data set [1], half-maximal inhibition (IC50) was put at 350 nM.
Regarding `CC(=O)NCCNCc1ccc2c(c1)C(=O)N(c1cccc(-c3ccccc3)c1C)C2`, the 50% inhibitory concentration (IC50) in data set [1] was > 10000 nM.
Molecule `CC(=O)NCCNCc1ccc(C(=O)N2CCc3c(-c4ccccc4)cccc32)cc1Cl` gave a concentration for half-maximal inhibition (IC50) in data set [1] of 589 nM.
